Measurements as given in patent US8183272B2, “Indanyl compounds” (Daiichi Sankyo Company, Limited, priority 2008, dated 2012).
Counter-ions that a name gives are not always drawn.

biological target: T1, human calcium-sensing receptor (CaSR) (Homo sapiens, UniProt P41180); experiment: Inhibitory activity on calcium-sensing receptor (CaSR) using intracellular calcium increase as an indicator (FLIPR, CHO/hCaSR); assay type: cell-based; settings: CHO/hCaSR cells; intracellular Ca increase induced by CaCl2; test compound 1.05 to 10,000 nM
T1 construct: expressed in transfected cells; host or cells: CHO cells (CHO/hCaSR)
T1 sequence (P41180 20-1078): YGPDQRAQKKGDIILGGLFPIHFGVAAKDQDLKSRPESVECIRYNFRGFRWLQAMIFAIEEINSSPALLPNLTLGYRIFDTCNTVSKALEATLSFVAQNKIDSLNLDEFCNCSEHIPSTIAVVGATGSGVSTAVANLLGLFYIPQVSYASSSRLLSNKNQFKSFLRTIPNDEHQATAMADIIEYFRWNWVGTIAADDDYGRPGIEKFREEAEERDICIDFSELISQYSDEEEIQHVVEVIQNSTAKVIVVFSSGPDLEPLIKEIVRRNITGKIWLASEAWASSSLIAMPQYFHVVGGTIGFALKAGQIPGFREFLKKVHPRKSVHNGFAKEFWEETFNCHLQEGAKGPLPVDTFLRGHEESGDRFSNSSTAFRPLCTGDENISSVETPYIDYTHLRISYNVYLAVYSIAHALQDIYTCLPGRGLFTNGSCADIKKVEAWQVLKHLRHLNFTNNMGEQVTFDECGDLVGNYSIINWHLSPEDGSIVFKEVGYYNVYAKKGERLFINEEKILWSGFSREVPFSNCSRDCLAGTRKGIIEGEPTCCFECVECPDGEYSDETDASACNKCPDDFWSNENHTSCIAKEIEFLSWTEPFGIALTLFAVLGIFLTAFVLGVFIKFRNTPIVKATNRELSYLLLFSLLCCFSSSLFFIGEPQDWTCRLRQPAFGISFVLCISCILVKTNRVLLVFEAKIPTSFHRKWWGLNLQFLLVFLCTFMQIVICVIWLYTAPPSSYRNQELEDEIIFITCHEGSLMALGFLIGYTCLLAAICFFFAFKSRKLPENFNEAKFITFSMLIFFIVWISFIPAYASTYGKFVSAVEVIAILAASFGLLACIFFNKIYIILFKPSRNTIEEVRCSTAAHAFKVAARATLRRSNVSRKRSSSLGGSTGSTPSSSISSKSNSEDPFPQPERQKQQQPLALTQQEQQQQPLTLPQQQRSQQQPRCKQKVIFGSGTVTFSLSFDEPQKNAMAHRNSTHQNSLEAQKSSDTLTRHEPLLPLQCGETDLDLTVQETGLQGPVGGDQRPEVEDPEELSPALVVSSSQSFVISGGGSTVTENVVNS
Experimental: Evaluation of inhibitory activity on calcium-sensing receptor (CaSR) using intracellular calcium increase as an indicator
The preparation which is prepared by adding CHO/hCaSR to F12 medium (manufactured by Invitrogen) containing 10% fetal bovine serum to have 2×10^5 cells/mL was applied to a 384-well in an amount of 50 μL/well, and then incubated overnight in a CO2 incubator. The culture supernatant was completely removed, the assay buffer (20 mM HEPES, HBSS (Ca and Mg free) containing 2.5 mM probenecid, pH 7.4) containing Calcium 3 (manufactured by Molecular Devices), i.e., a fluorescent intracellular calcium indicator, was added thereto in an amount of 25 μL/well, and the mixture was maintained for 1 hour in a CO2 incubator. Meanwhile, Calcium 3 was prepared according to the protocol enclosed in FLIPR Calcium 3 Assay Kit (manufactured by Molecular Devices). After maintaining it for 1 hour, a solution in which the test compound is prepared to have 2.1 to 20,000 nM (final concentration of 1.05 to 10,000 nM) by an assay buffer was added thereto in an amount of 25 μL/well, and maintained for 15 minutes in a CO2 incubator. Then, the CaCl2 solution prepared to have […] by using the assay buffer was added in an amount of 25 μL/well, and the resulting intracellular Ca increase (i.e., fluorescence intensity) was measured over time using a fluorescence imaging plate reader (FLIPR, manufactured by Molecular Devices). From the data obtained, the difference between the fluorescence intensity before the addition of CaCl2 solution and the maximum fluorescence intensity after the addition of CaCl2 solution was calculated, and the 50% inhibition concentration (IC50) of the test compound was obtained.

| IC50 [nM] | Structure (SMILES) |
| --- | --- |
| ≤ 2400 | C[C@@H](OC[C@H](O)CNC(C)(C)CC1Cc2ccccc2C1)c1c(F)cccc1CCC(=O)O [31 low polarity, 3-{2-[(1R)-1-{[(2R)-3-{[1-(2,3-dihydro-1H-inden-2-yl)-2-methylpropan-2-yl]amino}-2-hydroxypropyl]oxy}ethyl]-3-fluorophenyl}propanoic acid] |
| ≤ 2180 | C[C@@H](OC[C@H](O)CNC(C)(C)CC1Cc2ccccc2C1)c1cccc(OC(F)F)c1CCC(=O)O [Example 66] |
| ≤ 2260 | COc1cc(F)cc([C@@H](C)OC[C@H](O)CNC(C)(C)CC2Cc3ccccc3C2)c1CCC(=O)O [Example 35] |
| ≤ 2420 | Cc1ccc([C@@H](C)OC[C@H](O)CNC(C)(C)CC2Cc3ccccc3C2)c(CCC(=O)O)c1 [Example 5, 3-{2-[(1R)-1-{[(2R)-3-{[1-(2,3-Dihydro-1H-inden-2-yl)-2-methylpropan-2-yl]amino}-2-hydroxypropyl]oxy}ethyl]-5-methylphenyl}propanoic acid] |
| ≤ 2270 | CC[C@@H](OC[C@H](O)CNC(C)(C)CC1Cc2ccccc2C1)c1cc(F)c(C)cc1CCC(=O)O [Example 60] |
| ≤ 2170 | C[C@@H](OC[C@H](O)CNC(C)(C)CC1Cc2ccccc2C1)c1cccc(C(F)(F)F)c1CCC(=O)O [Example 10, 3-{2-[(1R)-1-{[(2R)-3-{[1-(2,3-Dihydro-1H-inden-2-yl)-2-methylpropan-2-yl]amino}-2-hydroxypropyl]oxy}ethyl]-6-(trifluoromethyl)phenyl}propanoic acid] |
| ≤ 2420 | C[C@@H](OC[C@H](O)CNC(C)(C)CC1Cc2ccccc2C1)c1ccccc1CCCC(=O)O [Example 2, 4-{2-[(1R)-1-{[(2R)-3-{[1-(2,3-Dihydro-1H-inden-2-yl)-2-methylpropan-2-yl]amino}-2-hydroxypropyl]oxy}ethyl]phenyl}butanoic acid] |
| ≤ 2280 | CCC[C@@H](OC[C@H](O)CNC(C)(C)CC1Cc2ccccc2C1)c1cccc(C)c1CCC(=O)O [Example 52] |
| ≤ 2340 | C[C@@H](OC[C@H](O)CNC(C)(C)CC1Cc2ccccc2C1)c1ccccc1CCOCC(=O)O [Example 83, (2-{2-[(1R)-1-{[(2R)-3-{[1-(2,3-Dihydro-1H-inden-2-yl)-2-methylpropan-2-yl]amino}-2-hydroxypropyl]oxy}ethyl]phenyl}ethoxy)acetic acid] |
| ≤ 2400 | C[C@@H](OC[C@H](O)CNC(C)(C)CC1Cc2ccccc2C1)c1cccc(F)c1CCC(=O)O [Example 7, 3-{2-[(1R)-1-{[(2R)-3-{[1-(2,3-Dihydro-1H-inden-2-yl)-2-methylpropan-2-yl]amino}-2-hydroxypropyl]oxy}ethyl]-6-fluorophenyl}propanoic acid] |
| ≤ 2350 | C[C@@H](OC[C@H](O)CNC(C)(C)CC1Cc2ccccc2C1)c1ccccc1CC(C)(C)C(=O)O [Example 82, 3-{2-[(1R)-1-{[(2R)-3-{[1-(2,3-Dihydro-1H-inden-2-yl)-2-methylpropan-2-yl]amino}-2-hydroxypropyl]oxy}ethyl]phenyl}-2,2-dimethylpropanoic acid] |
| ≤ 2330 | CC[C@@H](OC[C@H](O)CNC(C)(C)CC1Cc2ccccc2C1)c1cc(F)ccc1CCC(=O)O [Example 38] |
| ≤ 2180 | C[C@@H](OC[C@H](O)CNC(C)(C)CC1Cc2ccccc2C1)c1cc(F)c(F)cc1CCCCC(=O)O [Example 30] |
| ≤ 2310 | CC(OC[C@H](O)CNC(C)(C)CC1Cc2ccccc2C1)c1c(CCC(=O)O)ccc(F)c1F (stereo partly shown) [Example 36] |
| ≤ 2270 | CCOc1ccc(CCC(=O)O)c([C@@H](C)OC[C@H](O)CNC(C)(C)CC2Cc3ccccc3C2)c1 [Example 56] |
| ≤ 2210 | CC(C)Oc1cccc([C@@H](C)OC[C@H](O)CNC(C)(C)CC2Cc3ccccc3C2)c1CCC(=O)O [Example 64] |
| ≤ 2280 | Cc1ccc(CCCCC(=O)O)c([C@@H](C)OC[C@H](O)CNC(C)(C)CC2Cc3ccccc3C2)c1 [Example 46] |

| IC50 [nM] | Structure (SMILES) |
| --- | --- |
| ≤ 2140 | CC[C@@H](OC[C@H](O)CNC(C)(C)CC1Cc2ccccc2C1)c1cc(F)c(C)cc1CCCCC(=O)O [Example 61] |
| ≤ 2350 | C[C@@H](OC[C@H](O)CNC(C)(C)CC1Cc2ccccc2C1)c1ccccc1CCCCC(=O)O [Example 13, 5-{2-[(1R)-1-{[(2R)-3-{[1-(2,3-Dihydro-1H-inden-2-yl)-2-methylpropan-2-yl]amino}-2-hydroxypropyl]oxy}ethyl]phenyl}pentanoic acid] |
| ≤ 2200 | Cc1cc(CCCCC(=O)O)c([C@@H](C)OC[C@H](O)CNC(C)(C)CC2Cc3ccccc3C2)cc1F [Example 23] |
| ≤ 2150 | CCOc1ccc(CCCCC(=O)O)c([C@@H](C)OC[C@H](O)CNC(C)(C)CC2Cc3ccccc3C2)c1 [Example 58] |
| ≤ 2190 | C[C@@H](OC[C@H](O)CNC(C)(C)CC1Cc2ccccc2C1)c1ccc(Cl)cc1CCCCC(=O)O [Example 72] |
| ≤ 2160 | C[C@@H](OC[C@H](O)CNC(C)(C)CC1Cc2ccccc2C1)c1ccccc1CCc1nn[nH]n1 [Example 81, (2R)-1-{[2-(2,3-Dihydro-1H-inden-2-yl)-1,1-dimethylethyl]amino}-3-[(1R)-1-{2-[2-(2H-tetrazol-5-yl)ethyl]phenyl}ethoxy]propan-2-ol formate] |
| ≤ 2280 | CCC[C@@H](OC[C@H](O)CNC(C)(C)CC1Cc2ccccc2C1)c1ccc(C)cc1CCC(=O)O [Example 54] |
| ≤ 2250 | CC[C@@H](OC[C@H](O)CNC(C)(C)CC1Cc2ccccc2C1)c1cc(F)c(F)cc1CCC(=O)O [Example 79] |
| ≤ 2270 | CCC[C@@H](OC[C@H](O)CNC(C)(C)CC1Cc2ccccc2C1)c1cc(F)ccc1CCC(=O)O [Example 51] |
| ≤ 2340 | COc1cccc([C@@H](C)OC[C@H](O)CNC(C)(C)CC2Cc3ccccc3C2)c1CCC(=O)O [Example 17] |
| ≤ 2250 | CC[C@@H](OC[C@H](O)CNC(C)(C)CC1Cc2ccccc2C1)c1ccc(Cl)cc1CCC(=O)O [Example 74] |
| ≤ 2340 | COc1ccc([C@@H](C)OC[C@H](O)CNC(C)(C)CC2Cc3ccccc3C2)c(CCC(=O)O)c1 [Example 16] |
| ≤ 2320 | C[C@@H](OC[C@H](O)CNC(C)(C)CC1Cc2ccccc2C1)c1cc(Cl)ccc1CCC(=O)O [Example 70] |
| ≤ 2270 | CCOc1cccc([C@@H](C)OC[C@H](O)CNC(C)(C)CC2Cc3ccccc3C2)c1CCC(=O)O [Example 62] |
| ≤ 2280 | C[C@@H](OC[C@H](O)CNC(C)(C)CC1Cc2ccccc2C1)c1ccccc1CCCCCC(=O)O [Example 67] |
| ≤ 2420 | CC[C@@H](OC[C@H](O)CNC(C)(C)CC1Cc2ccccc2C1)c1ccccc1CCC(=O)O [Example 18] |
| ≤ 2310 | C[C@@H](OC[C@H](O)CNC(C)(C)CC1Cc2ccccc2C1)c1cc(F)c(F)cc1CCC(=O)O [Example 26] |
